The values that follow are results of earlier work, collected in EP0801943A2, “Cosmetic and dermatological photoprotective compositions containing a triazine derivative and alkyl and/or dialkylesters of alpha, omega-alkanedicarboxylic acid” (Beiersdorf Aktiengesellschaft, priority 1996, dated 1997).

SMILES strings stand for the structures.

The conditions of the series: maximum amount of the filter that known solvents (Bekannte Lösungsmittel) can dissolve; prior-art statement, no test described.

As for `CCCCC(CC)COC(=O)c1ccc(Nc2nc(Nc3ccc(C(=O)OCC(CC)CCCC)cc3)nc(Nc3ccc(C(=O)OCC(CC)CCCC)cc3)n2)cc1` (stereo not shown) [UVINUL® T 150, 4,4',4''-(1,3,5-Triazin-2,4,6-triyltriimino)-tris-benzoesäure-tris(2-ethylhexylester)], the “Löslichkeit in Lipiden” value is on record as no more than 15 Gew.-%.
